Measurements: patent US20110144175A1, “METHOD FOR CONTROLLING DEGRADATION OF AGRICULTURAL CHEMICAL ACTIVE INGREDIENT” (priority 2008, published 2011)

Assay: Accelerated preservation test of dustable powder (Cyazofamid content by HPLC)
Type: physicochemical
Procedure: The dustable powder obtained by Example 1 or Comparative Example was subjected to an accelerated preservation at 54° C. for 14 days, and then the Cyazofamid content in the dustable powder was measured by an HPLC (high performance liquid chromatography) and degradation ratio (%) of Cyazofamid was calculated by the following formula. In this connection, the Cyazofamid content in the dustable powder preserved at 4° C. was measured at the time of measuring the Cyazofamid content in the dustable powder after accelerated preservation, and the value was used as the initial stage content. Degradation ratio (%)=(initial stage content−content after accelerated preservation)/initial stage content×100

Substance	Degradation Ratio (%) of Cyazofamid [%]
Epoxidized Soybean Oil	5
Polyoxyethylene Castor Oil	7
